# In patent publication US9763961B2, “Compositions that modulate the activity of estrogen receptors and estrogen-related receptors and methods for use” (CITY OF HOPE, priority 2005, dated 2017):
# Entries after “also recorded” stand apart in the source; their conditions may differ.
# How the values were obtained:
# [1] = molecular target: T1, ERRβ (Homo sapiens, UniProt O95718); assay: Transient transfection luciferase assay with pSG5-ERRb and SF1-SV40 reporter in HeLa cells; assay type: cell-based; settings: for IC50: HeLa cells, 24 h, average of at least two experiments; for Antagonistic properties on ERRb (in words): transient transfection
# T1 construct: expressed in transfected cells; host or cells: HeLa
# T1 sequence (O95718 1-433): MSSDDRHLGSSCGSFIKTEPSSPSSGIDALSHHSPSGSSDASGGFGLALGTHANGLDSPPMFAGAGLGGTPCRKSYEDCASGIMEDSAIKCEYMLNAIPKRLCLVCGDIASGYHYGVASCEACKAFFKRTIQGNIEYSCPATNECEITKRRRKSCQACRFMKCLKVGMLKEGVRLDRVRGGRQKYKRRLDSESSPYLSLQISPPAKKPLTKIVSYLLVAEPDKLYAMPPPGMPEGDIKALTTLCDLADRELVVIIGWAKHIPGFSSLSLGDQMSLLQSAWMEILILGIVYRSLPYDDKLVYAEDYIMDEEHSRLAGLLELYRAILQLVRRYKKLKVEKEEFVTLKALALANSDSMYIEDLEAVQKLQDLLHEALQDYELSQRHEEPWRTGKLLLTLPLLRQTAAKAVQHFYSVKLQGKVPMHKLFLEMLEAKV
# [2] = molecular target: T2, ERα (Homo sapiens, UniProt P03372); assay: Transient transfection luciferase assay with pSG5-ERa and ERE-SV40 reporter in HeLa cells, with 100 pM estradiol; assay type: cell-based; settings: for IC50: HeLa cells, in the presence of 100 pM of estradiol, 24 h; for Antagonistic properties on ERa (in words): transient transfection
# T2 construct: expressed in transfected cells; host or cells: HeLa
# T2 sequence (P03372 1-595): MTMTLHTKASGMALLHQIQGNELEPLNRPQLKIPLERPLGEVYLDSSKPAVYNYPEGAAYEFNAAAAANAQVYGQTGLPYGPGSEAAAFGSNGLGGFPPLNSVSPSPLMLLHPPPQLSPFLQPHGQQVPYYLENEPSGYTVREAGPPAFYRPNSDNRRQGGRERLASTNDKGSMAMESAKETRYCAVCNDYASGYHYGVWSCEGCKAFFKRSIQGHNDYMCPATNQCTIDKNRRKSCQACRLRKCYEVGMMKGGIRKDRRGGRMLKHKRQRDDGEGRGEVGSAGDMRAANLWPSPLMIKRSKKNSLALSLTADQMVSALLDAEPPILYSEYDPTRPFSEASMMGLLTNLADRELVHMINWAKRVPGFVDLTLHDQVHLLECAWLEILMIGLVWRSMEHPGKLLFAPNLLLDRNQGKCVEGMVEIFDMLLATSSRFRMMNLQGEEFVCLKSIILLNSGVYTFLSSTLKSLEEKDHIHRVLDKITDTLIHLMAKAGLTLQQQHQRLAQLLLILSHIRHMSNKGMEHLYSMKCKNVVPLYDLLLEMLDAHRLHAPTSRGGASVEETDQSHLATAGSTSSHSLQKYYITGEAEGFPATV
# [3] = molecular target: T3, ERRα (Homo sapiens, UniProt P11474); assay: Competitive [3H] genistein binding whole cell assay in ERRα-positive SK-BR-3 cells; design: endogenous in cells; host or cells: SK-BR-3; settings: FIG. 4
# T3 sequence (P11474 1-423): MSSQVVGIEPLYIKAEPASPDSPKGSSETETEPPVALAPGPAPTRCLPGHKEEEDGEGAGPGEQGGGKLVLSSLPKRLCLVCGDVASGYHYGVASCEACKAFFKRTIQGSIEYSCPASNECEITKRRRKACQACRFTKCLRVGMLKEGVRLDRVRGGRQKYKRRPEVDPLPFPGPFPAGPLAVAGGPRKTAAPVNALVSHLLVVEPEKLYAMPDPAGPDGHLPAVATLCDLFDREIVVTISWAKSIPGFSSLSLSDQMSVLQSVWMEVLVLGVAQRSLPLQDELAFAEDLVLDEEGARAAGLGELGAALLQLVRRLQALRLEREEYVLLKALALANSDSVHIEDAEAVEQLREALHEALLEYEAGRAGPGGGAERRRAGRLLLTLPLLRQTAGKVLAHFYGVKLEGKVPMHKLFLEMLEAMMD
# Method: In order to directly measure the binding affinities of agonists and inverse agonists to ERRα, we performed a competitive ERR binding whole cell assay using ERRα-positive SK-BR-3 cells. This method is developed based on the ER binding assay posted by the National Toxicology Program at the NIEHS <<http://iccvam.niehs.nih.gov/methods/endodocs/final/erbndbrd/erbdappx/B1.pdf>>. […] After the cells were washed twice with PBS, 250 μl ethanol will be added to each well for 20 min. Aliquots of ethanol extract was mixed with scintillation liquid for radioactivity measurements. The experiments have been performed in triplicate.
# In addition to reporter activity assay, in order to evaluate the interaction of chalcones with ERRα, a competitive binding assay was performed.
# Referring to FIG. 4, SK-BR-3 cells, which are positive for ERRα, were incubated with 1 μM of [3H] GEN and increasing concentrations of unlabeled GEN or Compound Nos. 1-9 or 7-5. After 1 h of incubation, the cells were washed with 1× PBS, and [3H] GEN was then extracted from the cells by an incubation of 30 min in 250 μl of ethanol. Values represent the mean±SD.
# [4] = molecular target: T4, human ERRα-1 (Homo sapiens, UniProt P11474); assay: Transient transfection luciferase assay, full length human ERRα with SF1-SV40-Luc reporter in HeLa cells; assay type: cell-based; settings: for Antagonism of constitutive activity of ERRα (in words) / IC50: HeLa cells; for Antagonism of constitutive activity of ERRα (in words): SF1 binding site reporter, FIG. 1; for IC50: pSG5-ERRα, 24 h, mean ± SD
# T4 construct: expressed in transfected cells; host or cells: HeLa
# T4 sequence (P11474 1-423): T3 sequence (P11474 1-423)
# Method: HeLa cells were cultured in MEM Earle's salts medium supplemented with 5% charcoal/dextran-treated fetal bovine serum. Cells were then divided and cultured in 6-well plates until 80% confluence was achieved. The cells were next transfected with 4 μg Lipofectin. An equal amount of total DNA was used in all transfections by including appropriate amounts of the empty vector, pSG5, in addition to specific amounts of pSG5-ERRα and luciferase reporter plasmids (ERRE (ERRα recognizes an ERE half site)-containing reporter and aromatase promoter I.3-containing reporter). Following an overnight incubation, the medium containing Lipofectin and DNA was removed, and the cells cultured in a growth medium containing 5% charcoal/dextran-treated fetal bovine serum with or without ligands. After a 24-hour incubation, the cells was harvested from the plates by scraping, and the luciferase activities in the cell lysates (with the same amounts of protein) was measured according to the manufacturer's instructions (Promega). All experiments were performed in triplicate.
# To evaluate the functional significance of the interaction of chalcones with ERRα, we incubated these compounds with HeLa cells which were transiently transfected with human ERRα expression plasmid and a luciferase reporter plasmid containing SF1 binding site. […] In order to confirm the results above, HeLa cells were transiently transfected with GAL4-human ERRα LBD fusion expression plasmid and a luciferase reporter plasmid containing GAL4 binding site. […] Most of the compounds, however, have similar IC50 value, and have a similar potency.
# Referring to FIG. 1, HeLa cells were cotransfected with pSG5-ERRα (0.5 μg) and luciferase reporter plasmid containing SF1 binding site and SV40 promoter (0.25 μg). The transfected cells were incubated with Compound No. 1-9 for 24 h. After cells were washed with 1× PBS, luciferase activity was measured. Values represent the mean±SD.
IC50 [1],Antagonistic properties on ERRb (in words) [1],IC50 [2],Antagonistic properties on ERa (in words) [2],Antagonism of constitutive activity of ERRα (in words) [4],IC50 [4],SMILES,Inhibition of binding of [3H] labeled genistein (in words) [3],Rank of potency as antagonist of ERRα among the chalcones [4]
3.5 µM,showed antagonistic properties,3.3 µM,showed antagonistic properties,antagonists of ERRα,5.7 ± 1.8 µM,"COc1cccc(/C=C/C(=O)c2ccc(O)cc2O)c1OC [Compound No. 1-9, 2′,4′-Dihydroxy-2,3-dimethoxychalcone]",competitively inhibited the binding of [3H] labeled genistein in a dose-dependent manner,most potent antagonist among these chalcones; also recorded: more potent antagonist of ERRα among these seven chalcones
6.7 µM,showed antagonistic properties,3.7 µM,showed antagonistic properties,antagonists of ERRα,6.2 ± 1 µM,"O=C(/C=C/c1ccccc1O)c1ccc(O)cc1O [Compound No. 7-5, 2,2′,4′-Trihydroxychalcone]",competitively inhibited the binding of [3H] labeled genistein in a dose-dependent manner,more potent antagonist of ERRα among these seven chalcones
